Results reported in ChEMBL document CHEMBL6177981, “Bardoxolone Derivatives as Novel Pseudo-Natural Necroptosis Inhibitors by Destabilizing HSP90 Client Proteins” (J Med Chem, 2025).
Active and inactive are the calls of the source.

Assays:
RAW264.7 = experiment: Anti-necroptotic activity in LZ-induced mouse RAW264.7 cells assessed as increase in cell viability at 5 to 10 uM preincubated with compound followed by LPS and Z-VAD-FMK stimulation and measured after 16 hrs by CellTiter-Lumi luminescent cell viability assay; format: functional, cell-based; settings: dose 5-10 µM
HT-29 [1] = experiment: Anti-necroptotic activity in TSZ-induced human HT-29 cells assessed as increase in cell viability at 2.5 uM preincubated with compound followed by Z-VAD-FMK, SM164 and TNFalpha addition and measured after 12 hrs by CellTiter-Lumi luminescent cell viability assay relative to control; format: functional
HT-29 [2] = experiment: Anti-necroptotic activity in TCZ-induced human HT-29 cells assessed as increase in cell viability at 1.25 uM preincubated with compound followed by Z-VAD-FMK, cycloheximide and TNFalpha addition and measured after 16 hrs by CellTiter-Lumi luminescent cell viability assay relative to control; format: functional
L929 [3] = experiment: Anti-necroptotic activity in TZ-induced mouse L929 cells assessed as rounded shape cell morphology at 10 uM measured after 12 hrs by Live-cell super-resolution panoramic microscopic analysis; format: functional, cell-based
L929 [4] = experiment: Anti-necroptotic activity in TZ-induced mouse L929 cells assessed as increase in cell survival at 10 uM measured after 12 hrs by Live-cell super-resolution panoramic microscopic analysis; format: functional, cell-based
Mus musculus [5] = experiment: (§1) Anti-necroptotic activity in TNFalpha/Z-VAD-FMK induced SIRS male C57BL/6J mouse model assessed as protection from death at 2.5 to 10 mg/kg, po pre-administered with compound via gavage for 2 hrs followed by […] of Z-VAD-FMK stimulation for 15 mins with subsequent TNF-alpha stimulation for 1 hrs and re-current […] of Z-VAD-FMK stimulation and measured after 8 hrs post SIRS induction; format: functional, organism-based; settings: dose 2.5-10 mg/kg, time 10.0 hrs
Mus musculus [6] = experiment: as §1, with “reduction in IL-1beta in lung” for “protection from death”, “5” for “2.5”, “induction by ELISA” for “induction”; format: functional, organism-based; settings: dose 5-10 mg/kg, time 10.0 hrs
[7] = AUC (0 to 24 hrs) in Sprague-Dawley rat at 2 mg/kg, iv measured after 24 hrs by LC-MS/MS analysis; format: ADME, organism-based; settings: in vivo
[8] = Cmax in Sprague-Dawley rat at 10 mg/kg, IG measured after 24 hrs by LC-MS/MS analysis; format: ADME, organism-based; settings: in vivo, po
[9] = Tmax in Sprague-Dawley rat at 10 mg/kg, IG measured after 24 hrs by LC-MS/MS analysis; format: ADME, organism-based; settings: in vivo, po
[10] = Acute toxicity in male C57BL/6J mouse assessed as effect on AST level at 2 g/Kg, IG measured after 72 hrs; settings: in vivo, po, 2000 mg/kg
[11] = Acute toxicity in male C57BL/6J mouse assessed as effect on ALP level at 2 g/Kg, IG measured after 72 hrs; settings: in vivo, po, 2000 mg/kg
[12] = Acute toxicity in male C57BL/6J mouse assessed as inflammatory cell infiltration in liver at 2 g/Kg, IG measured after 72 hrs by H and E staining based analysis; format: tissue-based; settings: in vivo, po, 2000 mg/kg
[13] = Acute toxicity in male C57BL/6J mouse assessed as structural changes in liver at 2 g/Kg, IG measured after 72 hrs by H and E staining based analysis; format: tissue-based; settings: in vivo, po, 2000 mg/kg
[14] = Acute toxicity in male C57BL/6J mouse assessed as hemorrhage in spleen at 2 g/Kg, IG measured after 72 hrs by H and E staining based analysis; format: tissue-based; settings: in vivo, po, 2000 mg/kg
[15] = Acute toxicity in male C57BL/6J mouse assessed as hemorrhage in lung at 2 g/Kg, IG measured after 72 hrs by H and E staining based analysis; format: tissue-based; settings: in vivo, po, 2000 mg/kg
[16] = Acute toxicity in male C57BL/6J mouse assessed as inflammatory cell infiltration in kidney at 2 g/Kg, IG measured after 72 hrs by H and E staining based analysis; format: tissue-based; settings: in vivo, po, 2000 mg/kg
[17] = Acute toxicity in male C57BL/6J mouse assessed as hemorrhage in kidney at 2 g/Kg, IG measured after 72 hrs by H and E staining based analysis; format: tissue-based; settings: in vivo, po, 2000 mg/kg
[18] = Acute toxicity in male C57BL/6J mouse assessed as inflammatory cell infiltration in brain at 2 g/Kg, IG measured after 72 hrs by H and E staining based analysis; format: tissue-based; settings: in vivo, po, 2000 mg/kg
[19] = Acute toxicity in male C57BL/6J mouse assessed as structural changes in stomach at 2 g/Kg, IG measured after 72 hrs by H and E staining based analysis; format: tissue-based; settings: in vivo, po, 2000 mg/kg
[20] = biological target: T1, Receptor-interacting serine/threonine-protein kinase 1 (Homo sapiens) (UniProt Q13546); experiment: Inhibition of RIPK1 activation in TSZ-induced human HT-29 cells at 10 uM preincubated with compound followed by Z-VAD-FMK, SM164 and TNFalpha stimulation and measured after 6 hrs by Western blot analysis; format: cell-based
T1 sequence (whole entry): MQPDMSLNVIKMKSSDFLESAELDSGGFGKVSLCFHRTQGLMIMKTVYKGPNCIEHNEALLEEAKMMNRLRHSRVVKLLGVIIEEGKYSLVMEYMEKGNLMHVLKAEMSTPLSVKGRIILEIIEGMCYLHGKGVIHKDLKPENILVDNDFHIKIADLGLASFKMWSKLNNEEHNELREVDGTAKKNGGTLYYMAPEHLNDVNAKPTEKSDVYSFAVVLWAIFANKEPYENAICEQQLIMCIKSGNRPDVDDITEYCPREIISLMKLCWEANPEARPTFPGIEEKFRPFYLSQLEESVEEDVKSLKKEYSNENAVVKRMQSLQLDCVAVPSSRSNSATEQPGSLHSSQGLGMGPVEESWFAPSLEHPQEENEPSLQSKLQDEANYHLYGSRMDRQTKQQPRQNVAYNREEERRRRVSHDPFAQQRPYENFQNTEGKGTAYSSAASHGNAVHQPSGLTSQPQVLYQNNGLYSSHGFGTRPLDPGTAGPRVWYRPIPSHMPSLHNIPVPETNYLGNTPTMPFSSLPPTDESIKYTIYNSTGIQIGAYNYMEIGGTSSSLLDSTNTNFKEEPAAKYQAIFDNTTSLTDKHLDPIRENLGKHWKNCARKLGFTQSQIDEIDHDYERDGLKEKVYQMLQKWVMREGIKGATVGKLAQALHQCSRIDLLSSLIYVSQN

HT-29 [21] = experiment: Downregulation of total RIPK3 protein level in TSZ-induced human HT-29 cells at 10 uM preincubated with compound followed by Z-VAD-FMK, SM164 and TNFalpha stimulation and measured after 6 hrs by Western blot analysis; format: functional, cell-based
HT-29 [22] = experiment: Downregulation of RIPK1 protein level in human HT-29 cells at 3 to 6 uM incubated for 9 hrs by Western blot analysis; format: functional, cell-based; settings: dose 3-6 µM
HT-29 [23] = experiment: Downregulation of EGFR expression in human HT-29 cells at 0.75 to 6 uM incubated for 9 hrs by Western blot analysis; format: functional, cell-based; settings: dose 0.75-6 µM
HT-29 [24] = experiment: Downregulation of RIPK3 protein level in human HT-29 cells at 6 uM preincubated with MG132 for 2 hrs followed by compound addition and measured after 9 hrs by Western blot analysis; format: functional, cell-based
HeLa [25] = experiment: Inhibition of MLKL protein expression in RIPK3-deficient human HeLa cells at 0.75 to 6 uM incubated for 9 hrs by Western blot analysis; format: functional, cell-based; settings: dose 0.75-6 µM
HeLa [26] = experiment: Inhibition of MLKL protein expression in RIPK3-deficient human HeLa cells at 6 uM preincubated with NH4Cl for 2 hrs followed by compound addition and measured after 9 hrs by Western blot analysis; format: functional, cell-based

Cn1ccc(-c2ccc(NC(=O)[C@]34CCC(C)(C)C[C@H]3[C@H]3C(=O)C=C5[C@@]6(C)C=C(C#N)C(=O)C(C)(C)[C@@H]6CC[C@@]5(C)[C@]3(C)CC4)cc2)n1
4.64 µg·h/mL: AUC(0-t) at 24 h [7]
Active; Significant Effect Observed: Activity (HT-29 [22])
Non-toxic: Activity [10] | Activity [11] | Activity [12] | Activity [13] | Activity [14] | Activity [15] | Activity [16] | Activity [17] | Activity [18] | Activity [19]
active: Activity (L929 [3]) | Activity (L929 [4]) | Activity (Mus musculus [5]) | Activity (Mus musculus [6]) | inhibition [20] | Activity (HT-29 [21]) | Activity (HT-29 [23]) | Activity (HT-29 [24]) | inhibition (HeLa [25]) | inhibition (HeLa [26])
0.0651 µg/mL: Cmax [8]
100%: Activity (HT-29 [1]) | Activity (HT-29 [2])
Active; Much Better Activity Observed: Activity (RAW264.7)
14 h: Tmax [9]
